Measured values published in ChEMBL document CHEMBL3046513, “Synthesis, characterization, and biological evaluation of some N-aryl hydrazones and their 2,3-disubstituted-4-thiazolidinone derivatives” (Med Chem Res, 2013).
≈ marks a conversion by molar mass, not a printed value.

Tests used:
Format in all cases: functional
Bacillus cereus = test: Antibacterial activity against Bacillus cereus assessed as growth inhibition by serial plate dilution method
Mus musculus [1] = test: Analgesic activity in Mus musculus […] albino (mouse) assessed as time taken to tail withdrawl at 100 mg/kg, po administered through intragastric tube after 120 min by tail flick test (reference value: 1.363 +/- 0.1297 secs)
Rattus norvegicus [2] = test: Anti-inflammatory activity in Rattus norvegicus (rat) assessed as decrease in carrageenan-induced paw edema at 100 mg/kg, po administered 30 min prior to carrageenan challenge measured after 180 min (reference value: 2.275 +/- 0.1181 mm)
Rattus norvegicus [3] = test: Anti-inflammatory activity in Rattus norvegicus (rat) assessed as decrease in carrageenan-induced paw edema at 100 mg/kg, po administered 30 min prior to carrageenan challenge measured after 60 min (reference value: 2.175 +/- 0.1797 mm)
[4] = tested on: Radical scavenging activity; test: Antioxidant activity assessed as inhibition of DPPH radical generation at 400 ug/mL after 20 min by spectrophotometric analysis relative to control
Staphylococcus aureus = test: Antibacterial activity against Staphylococcus aureus ATCC 25923 assessed as growth inhibition by serial plate dilution method
Mus musculus [5] = test: Analgesic activity in Mus musculus […] albino (mouse) assessed as time taken to tail withdrawl at 100 mg/kg, po administered through intragastric tube after 180 min by tail flick test (reference value: 1.363 +/- 0.1297 secs)
[6] = tested on: Radical scavenging activity; test: Antioxidant activity assessed as inhibition of DPPH radical generation at 200 ug/mL after 20 min by spectrophotometric analysis relative to control
Escherichia coli = test: Antibacterial activity against Escherichia coli ATCC 25922 assessed as growth inhibition by serial plate dilution method
Pseudomonas aeruginosa = test: Antibacterial activity against Pseudomonas aeruginosa ATCC 27853 assessed as growth inhibition by serial plate dilution method
Candida albicans = test: Antifungal activity against Candida albicans assessed as growth inhibition by serial plate dilution method
Rattus norvegicus [7] = test: Anti-inflammatory activity in Rattus norvegicus (rat) assessed as decrease in carrageenan-induced paw edema at 100 mg/kg, po administered 30 min prior to carrageenan challenge measured after 120 min (reference value: 2.375 +/- 0.1436 mm)
Mus musculus [8] = test: Analgesic activity in Mus musculus […] albino (mouse) assessed as time taken to tail withdrawl at 100 mg/kg, po administered through intragastric tube after 60 min by tail flick test (reference value: 1.363 +/- 0.1297 secs)
[9] = tested on: Radical scavenging activity; test: Antioxidant activity assessed as inhibition of DPPH radical generation at 800 ug/mL after 20 min by spectrophotometric analysis relative to control

Compound | MIC (Bacillus cereus) | Time (Mus musculus [1]) | Activity (Rattus norvegicus [2]) | Activity (Rattus norvegicus [3]) | inhibition [4] | MIC (Staphylococcus aureus) | Time (Mus musculus [5]) | inhibition [6] | MIC (Escherichia coli) | MIC (Pseudomonas aeruginosa) | MIC (Candida albicans) | Activity (Rattus norvegicus [7]) | Time (Mus musculus [8]) | inhibition [9]
COc1ccc(Br)c(C(=O)NN2C(=O)CSC2c2ccccc2)c1 (stereo not given) | 25 µg/mL (≈ 61.4 µM) | 3.563 s | 1.75 mm | 1.575 mm | 18.1% | 25 µg/mL (≈ 61.4 µM) | 2.425 s | 4.3% | 12.5 µg/mL (≈ 30.7 µM) | 12.5 µg/mL (≈ 30.7 µM) | 6.25 µg/mL (≈ 15.3 µM) | 1.65 mm | 3.675 s | 41.6%
COc1ccc(Br)c(C(=O)N/N=C\c2ccc(Cl)cc2)c1 | 12.5 µg/mL (≈ 34 µM) | – | – | – | – | 6.25 µg/mL (≈ 17 µM) | – | – | 6.25 µg/mL (≈ 17 µM) | 3.12 µg/mL (≈ 8.5 µM) | 3.12 µg/mL (≈ 8.5 µM) | – | – | –
COc1ccc(Br)c(C(=O)N/N=C\c2ccc(O)c(OC)c2)c1 | 6.25 µg/mL (≈ 16.5 µM) | – | – | – | – | 12.5 µg/mL (≈ 33 µM) | – | – | 6.25 µg/mL (≈ 16.5 µM) | 12.5 µg/mL (≈ 33 µM) | 12.5 µg/mL (≈ 33 µM) | – | – | –
COc1ccc(Br)c(C(=O)NN2C(=O)CSC2c2cccnc2)c1 (stereo not given) | 6.25 µg/mL (≈ 15.3 µM) | 3.6 s | 1.9 mm | 1.45 mm | 23.5% | 6.25 µg/mL (≈ 15.3 µM) | 2.938 s | 21.6% | 6.25 µg/mL (≈ 15.3 µM) | 6.25 µg/mL (≈ 15.3 µM) | 3.12 µg/mL (≈ 7.65 µM) | 1.75 mm | 3.25 s | 25.1%
COc1ccc(Br)c(C(=O)NN2C(=O)CSC2c2ccc(Cl)cc2)c1 (stereo not given) | 12.5 µg/mL (≈ 28.3 µM) | 2.788 s | 2.25 mm | 2.15 mm | 58.2% | 12.5 µg/mL (≈ 28.3 µM) | 2.463 s | 57.5% | 12.5 µg/mL (≈ 28.3 µM) | 3.12 µg/mL (≈ 7.07 µM) | 12.5 µg/mL (≈ 28.3 µM) | 2.25 mm | 2.613 s | 58.2%
CC(C)=CCN1CC[C@]2(C)c3cc(O)ccc3C[C@H]1[C@H]2C [(+)-PENTAZOCINE] | – | 6.863 s | – | – | – | – | 7.025 s | – | – | – | – | – | 7.075 s | –
COc1ccc(/C=N\NC(=O)c2cc(OC)ccc2Br)cc1 | 12.5 µg/mL (≈ 34.4 µM) | – | – | – | – | 12.5 µg/mL (≈ 34.4 µM) | – | – | 12.5 µg/mL (≈ 34.4 µM) | 3.12 µg/mL (≈ 8.6 µM) | 6.25 µg/mL (≈ 17.2 µM) | – | – | –
COc1ccc(Br)c(C(=O)NN2C(=O)CSC2c2ccc(-c3ccccc3)cc2)c1 (stereo not given) | 6.25 µg/mL (≈ 12.9 µM) | 3.313 s | 2.075 mm | 1.45 mm | 39.9% | 12.5 µg/mL (≈ 25.9 µM) | 3.113 s | 15.3% | 6.25 µg/mL (≈ 12.9 µM) | 6.25 µg/mL (≈ 12.9 µM) | 6.25 µg/mL (≈ 12.9 µM) | 1.875 mm | 2.988 s | 62.5%
COc1ccc(Br)c(C(=O)NN2C(=O)CSC2c2ccc(O)cc2)c1 (stereo not given) | 12.5 µg/mL (≈ 29.5 µM) | 2.775 s | 2.048 mm | 1.89 mm | 58% | 12.5 µg/mL (≈ 29.5 µM) | 2.532 s | 57.8% | 6.25 µg/mL (≈ 14.8 µM) | 6.25 µg/mL (≈ 14.8 µM) | 6.25 µg/mL (≈ 14.8 µM) | 1.899 mm | 2.675 s | 58.3%
COc1ccc(Br)c(C(=O)N/N=C\c2ccc([N+](=O)[O-])cc2)c1 | 6.25 µg/mL (≈ 16.5 µM) | – | – | – | – | 12.5 µg/mL (≈ 33.1 µM) | – | – | 6.25 µg/mL (≈ 16.5 µM) | 6.25 µg/mL (≈ 16.5 µM) | 3.12 µg/mL (≈ 8.26 µM) | – | – | –
CC1(C)S[C@@H]2[C@H](NC(=O)Cc3ccccc3)C(=O)N2[C@H]1C(=O)O [PENICILLIN G] | 0.12 µg/mL (≈ 0.359 µM) | – | – | – | – | 0.12 µg/mL (≈ 0.359 µM) | – | – | 0.12 µg/mL (≈ 0.359 µM) | 0.12 µg/mL (≈ 0.359 µM) | – | – | – | –
COc1ccc(/C=N\NC(=O)c2cc(OC)ccc2Br)c(OC)c1 | 12.5 µg/mL (≈ 31.8 µM) | – | – | – | – | 12.5 µg/mL (≈ 31.8 µM) | – | – | 6.25 µg/mL (≈ 15.9 µM) | 6.25 µg/mL (≈ 15.9 µM) | 6.25 µg/mL (≈ 15.9 µM) | – | – | –
COc1ccc(C2SCC(=O)N2NC(=O)c2cc(OC)ccc2Br)cc1 (stereo not given) | 6.25 µg/mL (≈ 14.3 µM) | 2.575 s | 1.875 mm | 1.6 mm | 58.2% | 6.25 µg/mL (≈ 14.3 µM) | 2.513 s | 57.5% | 12.5 µg/mL (≈ 28.6 µM) | 6.25 µg/mL (≈ 14.3 µM) | 6.25 µg/mL (≈ 14.3 µM) | 1.75 mm | 2.388 s | 59.5%
COc1ccc(Br)c(C(=O)N/N=C\c2cccc3cc(OC)ccc23)c1 | 6.25 µg/mL (≈ 15.1 µM) | – | – | – | – | 6.25 µg/mL (≈ 15.1 µM) | – | – | 12.5 µg/mL (≈ 30.2 µM) | 12.5 µg/mL (≈ 30.2 µM) | 12.5 µg/mL (≈ 30.2 µM) | – | – | –
COc1ccc(C2SCC(=O)N2NC(=O)c2cc(OC)ccc2Br)c(OC)c1 (stereo not given) | 6.25 µg/mL (≈ 13.4 µM) | 3.075 s | 1.9 mm | 2.125 mm | 33.2% | 12.5 µg/mL (≈ 26.7 µM) | 2.388 s | 15.9% | 12.5 µg/mL (≈ 26.7 µM) | 6.25 µg/mL (≈ 13.4 µM) | 3.12 µg/mL (≈ 6.69 µM) | 2.15 mm | 3.175 s | 71%
COc1ccc(Br)c(C(=O)N/N=C\c2ccc(-c3ccccc3)cc2)c1 | 25 µg/mL (≈ 61.1 µM) | – | – | – | – | 25 µg/mL (≈ 61.1 µM) | – | – | 25 µg/mL (≈ 61.1 µM) | 6.25 µg/mL (≈ 15.3 µM) | 12.5 µg/mL (≈ 30.5 µM) | – | – | –
